Experimental findings from US8618096B2, “Prodrug compositions and methods for using the same in treating cancer and malaria” (The Regents of the University of California, priority 2008, dated 2013) are described below.

Data set [1] relates to 3D7 strain of P. falciparum. The data set is described as follows: Antimalarial activity, parasite growth in human erythrocytes (YOYO-1 flow cytometry), 3D7 strain. Particulars: Plasmodium falciparum, 3D7, Erythrocyte; 72 hr growth period, eight-point dose-response. In kind it is cell-based. As for the experimental part: (§1) Cultures of 3D7 and W2 strains of P. falciparum parasites were grown in purified human erythrocytes and synchronous cultures were placed into 96-well plates containing test compounds. After a 72 hr growth period, cultures were fixed for 1 hr at room temperature in 1% paraformaldehyde and stained with 50 nM YOYO-1 for about 24 hr in the dark. Samples were analyzed on a Becton-Dickinson LSR2 fitted with a microplate reader. Uninfected erythrocytes were used to determine background autofluorescence. Parasite growth in each sample was determined relative to infected erythrocytes without test compound. “Eight-point dose-response curves were generated and EC50 values determined using GRAPHPAD PRISM® software”.

The subject of data set [2] is W2 strain of P. falciparum. The data set can be described thus: Antimalarial activity, parasite growth in human erythrocytes (YOYO-1 flow cytometry), W2 strain. It is filed as cell-based. Conditions: Plasmodium falciparum, W2, Erythrocyte; 72 hr growth period, eight-point dose-response. As for the experimental part: as §1
A short description of data set [3]: Fe(II) activation and drug release in vitro (LC/MS). In kind it is physicochemical. On the procedure:
In a series of experiments, the compound of Example 1 (0.03 mM) was incubated with various amounts (0-100 equivalents) of a ferrous iron salt (ferrous bromide) in a 1:1 solution of acetonitrile and an aqueous buffer at ambient temperature. Either of two buffers were used in these studies: pH 5.5 sodium acetate buffer intended to mimic a lysosomal environment or pH 7.4 phosphate buffered saline. At various time points, a 10 μl sample of the incubation mixture was removed and analyzed by liquid chromatography/mass spectroscopy (LC/MS) to identify the expected products of iron-promoted degradation and drug release. A Waters Alliance/ZQ micromass LC/MS system and a 15 min method employing gradient elution with acetonitrile-water mobile phase (containing 0.1% formic acid) was employed. In the absence of ferrous iron salts, the compound of example 1 was stable for 48 hrs, showing no detectable chemical degradation by LC/MS spectroscopy. In the presence of ferrous bromide however, the compound of example 1 was rapidly (less than 1 hour) converted into the expected ketone (analogous to G, FIG. 2) resulting from iron-promoted degradation of the trioxolane ring. Also observed was a signal attributable to the released drug species, 2,5-dichloroaniline.

Data set [4] relates to W2 strain P. falciparum parasites. The data set can be described thus: Evaluation of drug release in cells: food vacuole phenotype in Giemsa-stained blood smears. It is filed as cell-based, Plasmodium falciparum. Conditions: 24 hrs, ring stage W2 parasites. On the procedure:
Cmpd 72 is the prodrug form of a parasite cysteine protease inhibitor, specifically an inhibitor of the proteases falcipain-2 and falcipain-3 from the malaria parasite Plasmodium falciparum. […] Thus, observation of the food vacuole phenotype upon treatment of cultured P. falciparum parasites with the protease inhibitor prodrug would constitute positive evidence for release of the free drug inside the parasite.
Synchronized W2 strain P. falciparum parasites (ring stage) were grown as described herein and incubated in the presence of test and control compounds for 24 hrs. Next, a blood smear was made, fixed with methanol, and stained with Giemsa, as known in the art. Parasites were then imaged at 100× magnification to identify the presence or absence of the food vacuole phenotype.

For the compound `O=C(CCC1(CCOC(=O)Nc2cc(Cl)ccc2Cl)OOC2(O1)C1CC3CC(C1)CC2C3)NCCN1CCOCC1` (stereo not drawn) [Cmpd 40, 2-(5,5-spiroadamantyl-3-(3-(2-morpholinoethylamino)-3-oxopropyl)-1,2,4-trioxolan-3-yl)ethyl-2,5-dichlorophenylcarbamate], the concentration giving a half-maximal response (EC50) was found to be 16 nM in data set [1] and 24 nM in data set [2]. In data set [3] (0.03 mM, in the presence of ferrous bromide, 1:1 acetonitrile and aqueous buffer, ambient temperature), the “time of conversion into the expected ketone (iron-promoted degradation of the trioxolane ring)” value is reported as “less than 1 hour”. In addition, the “stability in the absence of ferrous iron salts (no detectable chemical degradation by LC/MS)” value in data set [3] (48 h, 0.03 mM) is at least 48 h. In data set [3] (in the presence of ferrous bromide, during the course of the experiment, LC/MS), the “release of drug species 2,5-dichloroaniline” value is reported as “the quantity of 2,5-dichloroaniline increased”.
Consider `O=C(CCC1(CCOC(=O)N2CCN(c3ccccc3)CC2)OOC2(O1)C1CC3CC(C1)CC2C3)NCCN1CCOCC1` (stereo not drawn) [Cmpd 45, 2-(5,5-spiroadamantyl-3-(3-(2-morpholinoethylamino)-3-oxopropyl)-1,2,4-trioxolan-3-yl)ethyl 4-phenylpiperazine-1-carboxylate], for which the values for the EC50 in data set [1] and in data set [2] were 9 nM and 4.9 nM, respectively.
The like results for `CN(Cc1ccccc1)C(=O)OCCC1(CCC(=O)NCCN2CCOCC2)OOC2(O1)C1CC3CC(C1)CC2C3` (stereo not drawn) [Cmpd 47, 2-(5,5-spiroadamantyl-3-(3-(2-morpholinoethylamino)-3-oxopropyl)-1,2,4-trioxolan-3-yl)ethyl benzyl(methyl)carbamate] were, in that order, 16 nM and 15 nM.
Turning to `O=C(CCC1(CCOC(=O)N(CCCNc2ccnc3cc(Cl)ccc23)Cc2ccco2)OOC2(O1)C1CC3CC(C1)CC2C3)NCCN1CCOCC1` (stereo not drawn) [Cmpd 48, 2-(5,5-spiroadamantyl-3-(3-(2-morpholinoethylamino)-3-oxopropyl)-1,2,4-trioxolan-3-yl)ethyl 3-(7-chloroquinolin-4-ylamino)propyl(furan-2-ylmethyl)carbamate], the concentration giving a half-maximal response (EC50) worked out at 38 nM in data set [1] and 62 nM in data set [2].
Turning to `O=C(CCC1(CCO)OOC2(O1)C1CC3CC(C1)CC2C3)NCCCN1CCCC1=O` (stereo not drawn) [Cmpd 58, 3-(3-(2-hydroxyethyl)-5,5-spiroadamantyl-1,2,4-trioxolan-3-yl)-N-(3-(2-oxopyrrolidin-1-yl)propyl)propanamide], in data set [4] (1.1 uM, FIG. 3C-E), the “food vacuole phenotype (falcipain inhibition)” value is “does not produce the protease-inhibited phenotype”.
On to `CC(C)(C[C@H](NC(=O)N1CCOCC1)C(=O)N[C@H](/C=C/S(=O)(=O)c1ccccc1)CCc1ccccc1)OC(=O)OCCC1(CCC(=O)NCCCN2CCCC2=O)OOC2(O1)C1CC3CC(C1)CC2C3` (stereo partly drawn) [Cmpd 72], for which the “food vacuole phenotype (falcipain inhibition)” value in data set [4] (1.1 uM, FIG. 3C-E) is listed as “does produce the falcipain-inhibited phenotype”.
In the case of `CC(C)C[C@H](NC(=O)[C@H]1O[C@@H]1C(=O)O)C(=O)NCCCCN=C(N)N` [E64, reference compound], the “food vacuole phenotype (falcipain inhibition)” value in data set [4] (3.3 uM, FIG. 3B) is listed as “swollen, dark-staining food vacuole”.
`CC(C)(O)C[C@H](NC(=O)N1CCOCC1)C(=O)N[C@H](/C=C/S(=O)(=O)c1ccccc1)CCc1ccccc1` [N—((S)-4-hydroxy-4-methyl-1-oxo-1-((S,E)-5-phenyl-1-(phenylsulfonyl)pent-1-en-3-ylamino)pentan-2-yl)morpholine-4-carboxamide, reference compound]: the “food vacuole phenotype (falcipain inhibition)” value in data set [4] (1.1 uM, FIG. 3C-E) is given as “swollen, dark-staining food vacuole”.

One may read the EC50 as the concentration at which the effect is half-maximal. The low end stands for higher potency in that assay, the high end for lower potency in that assay.
